# Measurements reported in US20250163062A1, “WNT PATHWAY INHIBITOR COMPOUNDS” (ADLAI NORTYE BIOPHARMA CO., LTD., priority 2022, published 2025).
# Like-named read-outs stand apart in the source and are kept apart here.
# What was measured:
# Type in all cases: cell-based
# H929 = assay: Proliferation inhibition test, Wnt mutant cell line H929; conditions: H929, 96 h culture with compound, read-out: Antiproliferation IC50 H929
# Description: (§1) The cell lines used in the experiment are Colo205, H929, HepG2, and DU4475, which have sustained activation of the Wnt pathway and whose proliferation is Wnt pathway-dependent. On the other hand, RKO cell line, in which normally the Wnt pathway is not activated and whose proliferation is not Wnt pathway-dependent, was used as a control cell line. This was done to determine whether the inhibitory effect of the compound of the present disclosure on Wnt-dependent proliferation is due to other nonspecific toxicity.
# (§2) Colo205, H929, DU4475, HepG2 and RKO cell lines cultured in their respective culture media were treated in the logarithmic growth phase, and the cells were collected and prepared into a uniform cell suspension of known concentration, and then added to a 96-well cell culture plate so that each well contained 1000-4000 cells. Place in a 5% CO2 cell culture incubator and culture at 37° C. for 20-24 h. On the second day, add the completely dissolved, 3-fold gradient dilution compound to each cell culture well to make the final maximum concentration in the cell culture well 10 uM, and continue to culture for 96 h. This test uses Promega's cell activity detection test for detection. The more the cells proliferate, the stronger the final signal intensity. The detection instrument is SpectraMax, full wavelength mode. The wells with only DMSO added were used as positive control wells, and the wells without cells inoculated were used as negative control wells.
# HepG2 = assay: Proliferation inhibition test, Wnt mutant cell line HepG2; conditions: HepG2, 96 h culture with compound, read-out: Antiproliferation IC50 HepG2
# Description: as §1, §2
# [1] = system: Colo205-LUC-TCF/LEF reporter gene; assay: Colo205-LUC-TCF/LEF M1 reporter cell line luciferase inhibition; conditions: 4 hours incubation, firefly luciferase signal
# Procedure: Colo205 cell line (Cell Bank of Chinese Academy of Sciences, Cat #TCHul02) was purchased from the Cell Bank of Chinese Academy of Sciences. After expansion and subculture, during the exponential growth phase, luciferase reporter plasmid (Promega) driven by TCF/LEF transcription factor was transfected by lipo3000 liposome transfection. The plasmid carries a resistance gene for resistance screening. Transfection was carried out in 10 cm culture dishes using conventional complete medium without resistance. After 2 days, the medium with resistance was replaced, and the culture was continued. After that, the medium with resistance was replaced every 2 days, and the suspended cells were discarded. The original medium was centrifuged to remove cells and debris and retained as an adaptive medium. When the cells covered the culture dish, the cells were digested, counted, and passaged in a 96-well plate, so that the average number of cells contained in each well was 1.5/well, and the adaptive medium was used for passage. The rest of the cells were frozen. After passage, culture for 4 hours to allow the cells to adhere to the wall, and then observe the number of cells in each well under a microscope. Wells with only 1 cell per well were labeled as monoclonal wells. Afterwards, normal culture was performed, and the culture medium was replaced every 2 days, and observed. There are wells where the monoclonal cells continue to grow in the early stage, and they are labeled twice, and can be replaced with normal medium with resistance. When a monoclonal well was overgrown with a 96-well plate, it is digested and passaged to a 24-well culture plate. After the 24-well plate is overgrown, it is passaged to a 96-well plate and a 6-well plate. The cells in a 96-well plate are at least 6 wells, of which 3 wells were added with known Wnt inhibitors, and the other 3 wells were not treated. After 24 hours, the cells in the 96-well plate were added with a fluorescence detection reagent to detect the fluorescence intensity. Cell lines with fluorescent expression when not treated and decreased fluorescent light after inhibition were selected and further cultured. The Colo205-LUC-TCF/LEF-M1 cell line is one of the cell lines screened above. Its growth curve, cell shape, and cell growth state are similar to those of the original Colo205 cells, and the ratio of the fluorescent signals of the inhibitor-treated and untreated cells is the largest among all cell lines, and the ratio can reach 4-5 times when inhibited at 4 hours, which was completely suitable for the screening of Wnt inhibitors in the later stage.
# The Colo205-LUC-TCF/LEF M1 cell line is a reporter tool cell stably transfected with the pGL4.49-LUC2-TCF/LEF vector. The β-catenin Wnt pathway is continuously activated. After adding the inhibitor, the Wnt pathway is inhibited. The expression of firefly luciferase regulated by the TCF/LEF cis-element decreased, and after adding the detection substrate, the detected light signal decreased accordingly, so as to detect the inhibitory effect of the compound.
# To a 96-well cell culture plate, add 100 uL of the compound with a maximum concentration of 20 uM to each well, and make a 3-fold serial dilution of the compound concentration. Then 10,000 colo205 cells stably transfected with the reporter gene and 100 uL medium were inoculated into each well, and corresponding positive and negative control wells were made at the same time. Put the cells in a 5% CO2 incubator and incubate at 37° C. for 4 hours. After 4 hours, remove the culture medium, add 100 μL of reagent (Promega) containing the corresponding firefly luciferase substrate to each well, and measure the activity of luciferase reporter gene. Luminescence intensity was read with SpectraMax in full wavelength mode. […]
# Colo205 = assay: Proliferation inhibition test, Wnt mutant cell line Colo205; conditions: Colo205, 96 h culture with compound, read-out: Antiproliferation IC50 Colo205
# Description: as §1, §2
# RKO = assay: Proliferation inhibition test, non-Wnt mutant control cell line RKO; conditions: RKO (Wnt pathway not activated, control), 96 h culture, maximum concentration 10 uM, read-out: Antiproliferation IC50 RKO
# Description: as §1, §2
# DU4475 = assay: Proliferation inhibition test, Wnt mutant cell line DU4475; conditions: DU4475, 96 h culture with compound, read-out: Antiproliferation IC50 DU4475
# Description: as §1, §2
SMILES,"IC50 (H929; Homo sapiens, NCI-H929, 96 h) [nM]","IC50 (HepG2; Homo sapiens, HepG2, 96 h) [nM]",IC50 ([1]; 4 h) [nM],"IC50 (Colo205; Homo sapiens, COLO 205, 96 h) [nM]",IC50 (RKO; Homo sapiens) [nM],"IC50 (DU4475; Homo sapiens, DU-4475, 96 h) [nM]",IC50 (H929) [nM],IC50 (HepG2) [nM],IC50 (Colo205) [nM],IC50 (RKO) [nM],IC50 (DU4475) [nM],IC50 [1] [nM]
CN1c2nc(NCc3ccc(Oc4ccc(C(F)(F)F)nc4F)nc3)nc3c2N(CCC3)C(=O)[C@@H]1CO [Compound 26],98.8,13.6,43.8,18.9,> 10000,12.1,–,–,–,–,–,–
"[2H]C([2H])([2H])N1c2nc(NCc3ccc(Oc4ccc(C(F)(F)F)nc4Cl)nc3)nc3c2N(CCC3)C(=O)[C@]1(C)CO [Compound 3, (S)-2-(((6-((2-chloro-6-(trifluoromethyl)pyridin-3-yl)oxy)pyridin-3-yl)methyl)amino)-5-(hydroxymethyl)-5-methyl-4-(methyl-d3)-4,5,9,10-tetrahydro-6H,8H-pyrido[3,2,1-de]pteridin-6-one]",20,2.17,15.6,4.48,> 10000,3.06,–,–,–,–,–,–
"[2H]C([2H])([2H])N1c2nc(NCc3ccc(Oc4ccc(C(F)(F)F)nc4Br)nc3)nc3c2N(CCC3)C(=O)[C@]1(C)CO [Compound 12, (S)-2-(((6-((2-bromo-6-(trifluoromethyl)pyridin-3-yl)oxy)pyridin-3-yl)methyl)amino)-5-(hydroxymethyl)-5-methyl-4-(methyl-d3)-4,5,9,10-tetrahydro-6H,8H-pyrid o[3,2,1-de]pteridin-6-one]",31.3,12.1,9.09,6.52,> 10000,0.82,–,–,–,–,–,–
[2H]C([2H])([2H])N1c2nc(NCc3ccc(Oc4ccc(C(F)(F)F)nc4F)nc3)nc3c2N(CCC3)C(=O)[C@@H]1CO [Compound 27],90.2,38.3,30.6,22.8,> 10000,24.6,–,–,–,–,–,–
"[2H]C([2H])([2H])N1c2nc(NCc3ccc(Oc4ccc(C(F)(F)F)nc4Cl)nc3)nc3c2N(CCC3)C(=O)[C@@H]1CO [Compound 1, (S)-2-(((6-((2-chloro-6-(trifluoromethyl)pyridin-3-yl)oxy)pyridin-3-yl)methyl)amino)-5-(hydroxymethyl)-4-(methyl-d3)-4,5,9,10-tetrahydro-6H,8H-pyrido[3,2,1-de]pteridin-6-one]",40.3,1.45,15.5,7.81,> 10000,3.17,–,–,–,–,–,–
[2H]C([2H])([2H])N1c2nc(NCc3ccc(Oc4cnc(C(F)(F)F)nc4C)nc3)nc3c2N(CCC3)C(=O)[C@@H]1[C@@H](C)O [Compound 24],5.61,37,48,46.5,> 10000,23.2,–,–,–,–,–,–
"[2H]C([2H])([2H])N1c2nc(NCc3ccc(Oc4cnc(C(F)(F)F)nc4C4CC4)nc3)nc3c2N(CCC3)C(=O)[C@@H]1CO [Compound 9, (S)-2-(((6-((4-cyclopropyl-2-(trifluoromethyl)pyrimidin-5-yl)oxy)pyridin-3-yl)methyl)amino)-5-(hydroxymethyl)-4-(methyl-d3)-4,5,9,10-tetrahydro-6H,8H-pyrido[3,2,1-de]pteridin-6-one]",36.4,11.3,13.8,8.43,> 10000,0.46,–,–,–,–,–,–
"CN1c2nc(NCc3ccc(Oc4ccc(C(F)(F)F)nc4N4CCCC4)nc3)nc3c2N(CCC3)C(=O)[C@]1(C)CO [Compound 13, (S)-5-(Hydroxymethyl)-4,5-dimethyl-2-(((6-((2-(pyrrolidin-1-yl)-6-(trifluoromethyl)pyridin-3-yl)oxy)pyridin-3-yl)methyl)amino)-4,5,9,10-tetrahydro-6H,8H-pyrido[3,2,1-de]pteridin-6-one]",54,19.1,6.86,11.5,> 10000,1.58,–,–,–,–,–,–
Cc1nc(C(F)(F)F)ncc1Oc1ccc(CNc2nc3c4c(n2)N(C)[C@@H]([C@H](C)O)C(=O)N4CCC3)cn1 [Compound 25],98,68,69.4,64.5,> 10000,15.9,–,–,–,–,–,–
Cc1nc(C(F)(F)F)ncc1Oc1ncc(CNc2nc3c4c(n2)N(C)[C@@](C)(CO)C(=O)N4CCC3)cc1F [Compound 28],126,61.3,27.4,25.7,> 10000,16.8,–,–,–,–,–,–
"[2H]C([2H])([2H])N1c2nc(NCc3ccc(Oc4cnc(C(F)(F)F)nc4C)nc3)nc3c2N(CCC3)C(=O)[C@@H]1CO [Compound 4, (S)-5-(Hydroxymethyl)-4-(methyl-d3)-2-(((6-((4-methyl-2-(trifluoromethyl)pyrimidin-5-yl)oxy)pyridin-3-yl)methyl)amino)-4,5,9,10-tetrahydro-6H,8H-pyrido[3,2,1-de]pteridin-6-one]",278,89.7,66.3,42.6,> 10000,25.8,–,–,–,–,–,–
Cc1nc(C(F)(F)F)ncc1Oc1ccc(CNc2nc3c4c(n2)N(C)[C@@](C)([C@H](C)O)C(=O)N4CCC3)cn1 [Compound 22],–,–,90,–,–,–,309,224,64.3,> 10000,38.6,–
"Cc1nc(C(F)(F)F)ncc1Oc1ccc(CNc2nc3c4c(n2)N(C)[C@@](C)([C@H](C)O)C(=O)N4CCC3)cn1 [Compound 6, (S)-5-((S)-1-hydroxyethyl)-4,5-dimethyl-2-(((6-((4-methyl-2-(trifluoromethyl)pyrimidin-5-yl)oxy)pyridin-3-yl)methyl)amino)-4,5,9,10-tetrahydro-6H,8H-pyrido[3,2,1-de]pteridin-6-one]",303,–,–,–,> 10000,47.4,–,109,9.05,–,–,65.6
CN1c2nc(NCc3ccc(Oc4ccc(C(F)(F)F)nc4N4CC(F)(F)C4)nc3)nc3c2N(CCC3)C(=O)[C@]1(C)CO [Compound 21],255,1.52,4.94,< 0.1,> 10000,4.83,–,–,–,–,–,–
